Seven compounds from patent publication US12594255B2, “Lipids with odd number of carbon atoms and their use as pharmaceutical composition or nutritional supplement” (SunRegen Healthcare AG, priority 2016, dated 2026) can be followed below.

Where “and” joins values, the source holds several entries; their conditions need not be identical. Equal entries are not always repeated.

What all share (format): cell-based
The subject of series [1] is mouse primary cortical neurons challenged with Aβ1-42 oligomers (AβO). Nature of the series: AβO-induced neurotoxicity, 48-h pre-incubation with test item, MTT assay. The following applies: for Neuroprotection (0.01 μM) / Neuroprotection (0.1 μM): added 48 hours before 1 μM AβO; for neuroprotective effect: 1 μM, 48-h preincubation before 1 μM AβO. As for the experimental part: Mouse primary cortical neurons were pre-incubated for 48 h with vehicle, 0.05 μM DHA (used as positive control) or different concentrations of Compound C. Then, cortical neurons were treated for 24 h with vehicle (FIG. 1 left) or 1 μM AβO ([…]) and cell viability was determined using the MTT assay (n=3 determinations per condition, 1 independent experiment), Data are represented as % of vehicle control (Mean*SD). […]
(§1) Cortical neurons from embryonic day 16-17 are prepared from C57BL6/J mouse fetuses. In brief, dissociated cortical cells were plated (50.000 cells/well) in 48-well plates pre-coated with 1.5 μg/mL polyornithine (Sigma). Cells were cultured in a chemically defined Dulbecco's modified eagle's/F12 medium free of serum and supplemented with hormones, proteins and salts. Cultures were kept at 35° C. in a humidified 6% CO2 atmosphere. Mouse cortical neurons were exposed for 24 h to 1.0 μM AβO after a 48-h pre-incubation with vehicle or different concentrations of Compound C. The AβO-induced neurotoxicity was evaluated using the MTT assay.
All treatments were done in triplicates in 48-well plates. Cells were incubated with vehicle or 1 μM AβO in the absence or presence of different lipids at the indicated final concentrations) added at 48 hours before ADO. Cells were incubated with AβO for 24 h in a final volume of 140 μL per well.
For positive controls, cells are treated similarly (48 hours before AβO) in the presence of 0.05 μM DHA.
Following AβO-treatment, cell viability was measured using the MTT assay. Briefly, cells were incubated at 35° C. for 1 h with MTT (Sigma, Cat #M2128-10G. Lot #MKBH7489V). For that purpose, 14 μL of 5 mg/mL MITT (solubilized in PBS) were added in each well. After incubation, medium was removed and cells were lyzed with 150 μL DMSO for 10 minutes and protected from light. After complete solubilization of formazan, absorbance at 570 nm was recorded.
as §1, with “cells are” for “cells were”, “Cells are” for “Cells were”, “Cultures are” for “Cultures were”, “of herb B extracts.” for “of Compound C.”, “assay. […]” for “assay.”

In series [2] the test system is mouse primary cortical neurons treated with 0.25 mM H2O2. The experiment in a line: H2O2-induced neurotoxicity, test item added 48 hours before or 3 hours after H2O2, MTT assay.
Series [3] has as its system human iPSC-derived neurons challenged with Aβ1-42 oligomers (AβO). Nature of the series: AβO-induced neuronal death in human iPSC-derived neurons, NSE ELISA assay. The procedure:
iPSCs were treated at 0 h (T0) with vehicle or 1 μM AβO. Different concentrations of Compound C or 0.1 μM HNG (used as positive control) were added concomitantly to AβO at 0 h (T0), 3 h (T3) or 6 h (T6) after AβO. Then, were incubated for 24 h and cell viability was determined using the NSE ELISA assay (n=6 determinations per condition, 1 independent experiment), Data are represented as % of vehicle control (Mean±SD). […]
To determine whether compound C might rescue neuronal death in human iPSC-derived neurons challenged with Aβ1-42 oligomers (AβO). In this cellular model, AβO induce a dramatic neuronal death that could be monitored by the level of neuronal specific enolase (NSE) using a specific ELISA assay. Compound C will be added at different time points (concomitantly and after AMBO) with the aim to identify rescuing effects.
Cells (HIP-Neuronal progenitors, GlobalStem, Cat #GSC-4312, Lot #20010260) are plated in 96-well plates at a density of 60.000 cells per well and culture. Before experiments, cells are matured for five weeks and kept at 37° C. in a humidified 5% CO2 atmosphere.
Cells are incubated with vehicle or 1 μM AβO in the absence or presence of different concentrations (i.e. 10, 100, 1000 and 10000 nM) of Compound C added concomitantly to AβO (T0), 3 h after AβO (T3), or 6 h after AβO (T6). Cells are incubated for 24 h in a final volume of 100 μL per well. For positive control, cells are treated similarly in the presence of 0.1 μM HNG (i.e. S14G variant of humanin peptide). In addition, neuronal loss is monitored using the detection of neuronal specific enolase (NSE) by ELISA assay according to supplier's recommendations (CloneCloud, Cat #SEA537Hu). A total of three data points per experimental condition will be generated here. […]
In general terms: An ELISA detects its analyte on a solid surface through an enzyme-linked reagent.

The subject of series [4] is mouse primary cortical neurons challenged with Aβ1-42 oligomers (AβO). Nature of the series: AβO-induced neurotoxicity, test item added concomitantly (T0) or 3 h (T3) or 6 h (T6) after AβO, MTT assay. The following applies: 0.1 μM HNG added 3 or 6 h after AβO. As for the experimental part:
Mouse primary cortical neurons were treated at 0 h (T0) with vehicle or 1 μM AβO, Different concentrations of Compound C or HNG (0.1 μM, used as positive control) were added concomitantly to AβO at 0 h (T0)), 3 h (T3) or 6 h (T6) after AβO. Then, cortical neurons were incubated for 24 h and cell viability was determined using the MTT assay (n=3 determinations per condition, 1 independent experiment). Data are represented as % of vehicle control (Mean±SD). […]
The aim of this study is to determine whether Compound C might present neuroprotective, anti-apoptotic and neuro-rescuing effects in in vitro AβO induced neuron death models. For that purpose, the neuro-protective effects of compound C at six concentrations were investigated using mouse primary cortical neurons challenged with Aβ1-42 oligomers (AβO) Compounds were added at different time points (concomitantly T0 with AβO and T3, or T6 after AβO) with the aim to identify rescuing effects or anti-apoptotic effects.
Cortical neurons from embryonic day 16-17 are prepared from C57Bl6/J mouse fetuses, as described in Example I-1.
Mouse cortical neurons were exposed for 24 h to 1.0 μM AβO. The AβO-induced neurotoxicity was evaluated using the MTT assay. […] (FIG. 4)
The percentage of neuroprotection and anti-apoptosis effects was defined as; (neuron viability of compound C group−neuron viability of toxin treated group)/(100−neuron viability of toxin treated group)×100%. The % of neuroprotection and anti-apoptotic effects of compound C at 1000 nM is 88.7%, 52.0%, 22.3%, at T0, T3, or T6, respectively. (FIG. 4) […]
A general note: Tetrazolium assays rely on reduction of a dye to a coloured formazan, in cell work by metabolically active cells.

In series [5] the test system is mouse primary cortical neurons. The experiment in a line: Axonal growth (MAP2 immunolabelling, axonal length). The conditions noted are these: 60 nM sAPPα; vehicle control 165.96±90.18 μm. The procedure: Mouse primary cortical neurons were pre-incubated for 48 h with vehicle, 60 nM sAPPα (used as positive control) or different concentrations of Compound C. Then, cortical neurons were treated for 24 h with vehicle. Data are represented as % of vehicle control (Mean±SD).
Cortical neurons from embryonic day 16-17 are prepared from C57Bl6/J mouse fetuses, as described in Example I-1. After 96-h incubation, axonal length is recorded. Briefly, cells were washed with ice-cold PBS and fixed with cold methanol. Following fixation, cells are immunolabelled using a specific antibody detecting total MAP2 protein. Antibodies to MAP2 are excellent markers on neuronal cells, their axons and neuronal dendrites. For quantification of axonal length, six independent images of labelled cells are captured using an inverted microscope. Pictures of cells are analyzed using Neuron-J software and axonal length is recorded manually. A minimum of 100 independent neurons are treated. The data are expressed as mean axonal length (expressed in μm) (Mean±SD). Statistical differences between vehicle-treated cells and cells treated with compounds are determined using a t-test.

In the case of `CC/C=C\C/C=C\C/C=C\C/C=C\C/C=C\C/C=C\CCC(=O)O` [DHA, Docosahexaenoic acid, reference compound], the remaining cell viability in series [1] (0.05 μM DHA, 48 h pre-incubation, then 1 μM AβO 24 h) was 82.0±2.6 % of control and 90.9±3.1 % of control.
Consider `CCCCCCCCCCCCCCC(=O)O` [GG05, Pentadecanoic acid], for which, in series [1], the “Neuroprotection (0.01 μM)” value is given as 21.9%, the “Neuroprotection (0.1 μM)” value is on record as 14.0% and the neuroprotective effect entry is “lost neuroprotective effect”.
The corresponding values for `CCCCCCCCCCCCCCCCC(=O)O` [GG07, Heptadecanoic acid] are 27.4%, 21.4% and “lost neuroprotective effect”.
Taken in the same sequence, the figures for `CCCCCCCCCCCCCCCCCCC(=O)O` [GG09, Nonadecanoic acid] were 31.2%, 25.9% and “lost neuroprotective effect”.
`Cc1c(C)c2c(c(C)c1O)CCC(C)(C(=O)O)O2` (stereo not shown) [Trolox]: the “inhibition of H2O2-induced cell death” value in series [2] (1 mM Trolox added 48 h before 0.25 mM H2O2) and in series [2] (1 mM Trolox added at T3 after 0.25 mM H2O2) was “partially inhibited cell death induced by H2O2” in each case.
For the compound “HNG: S14G variant of humanin peptide, positive control, well-known antiapoptotic peptide (MAPRGFSCLLLLTGEIDLPVKRRA; UniProt Q8IVG9 1-24, looked up, variant S14G) [reference compound]”, the “prevention of AβO-induced cell death” value in series [3] (0.1 μM HNG added 3 or 6 h after AβO) and in series [4] was “did not prevent cell death” throughout. Further, in series [3] (0.1 μM HNG added at T0 with 1 μM AβO, 24 h), the neuron viability is 85.3±15.6 % of control and 85.3±5.6 % of control.
In the case of “sAPPα: Secreted amyloid precursor protein-α, positive control [reference compound]”, the “neuronal axon outgrowth (mean axonal length)” value in series [5] turned out to be 264.63±157.51 μm.
